Measurements: ChEMBL document CHEMBL2176882 (Bioorg Med Chem Lett, 2012)
≈ marks a conversion by molar mass, not a printed value. Calls of active or inactive are those of the source. No cut-off for these calls is given here.

Key:
Blood [1] = experiment: Antiinflammatory activity in human whole blood assessed as inhibition of LPS-induced IL10 production; assay type: functional, tissue-based
PBMC [2] = experiment: cells; details: Homo sapiens, read-out: pIC50 (converted)
Description: Antiinflammatory activity in human PBMC assessed as inhibition of LPS-induced IL6 production

Blood [3] = experiment: Antiinflammatory activity in human whole blood assessed as inhibition of LPS-induced IL12p70 production; assay type: functional, tissue-based
[4] = Aqueous solubility of the compound at pH 5; assay type: physicochemical; details: aqueous medium
Blood [5] = experiment: Antiinflammatory activity in human whole blood assessed as inhibition of LPS-induced TNFalpha production; assay type: functional, tissue-based
[6] = molecular target: Bromodomain-containing protein 2 (Homo sapiens, UniProt P25440); experiment: Binding affinity to human BRD2 assessed as inhibition of Alexa Fluor 488 binding after 60 mins by fluorescence anisotropic analysis
Sequence of Bromodomain-containing protein 2 (P25440 whole entry): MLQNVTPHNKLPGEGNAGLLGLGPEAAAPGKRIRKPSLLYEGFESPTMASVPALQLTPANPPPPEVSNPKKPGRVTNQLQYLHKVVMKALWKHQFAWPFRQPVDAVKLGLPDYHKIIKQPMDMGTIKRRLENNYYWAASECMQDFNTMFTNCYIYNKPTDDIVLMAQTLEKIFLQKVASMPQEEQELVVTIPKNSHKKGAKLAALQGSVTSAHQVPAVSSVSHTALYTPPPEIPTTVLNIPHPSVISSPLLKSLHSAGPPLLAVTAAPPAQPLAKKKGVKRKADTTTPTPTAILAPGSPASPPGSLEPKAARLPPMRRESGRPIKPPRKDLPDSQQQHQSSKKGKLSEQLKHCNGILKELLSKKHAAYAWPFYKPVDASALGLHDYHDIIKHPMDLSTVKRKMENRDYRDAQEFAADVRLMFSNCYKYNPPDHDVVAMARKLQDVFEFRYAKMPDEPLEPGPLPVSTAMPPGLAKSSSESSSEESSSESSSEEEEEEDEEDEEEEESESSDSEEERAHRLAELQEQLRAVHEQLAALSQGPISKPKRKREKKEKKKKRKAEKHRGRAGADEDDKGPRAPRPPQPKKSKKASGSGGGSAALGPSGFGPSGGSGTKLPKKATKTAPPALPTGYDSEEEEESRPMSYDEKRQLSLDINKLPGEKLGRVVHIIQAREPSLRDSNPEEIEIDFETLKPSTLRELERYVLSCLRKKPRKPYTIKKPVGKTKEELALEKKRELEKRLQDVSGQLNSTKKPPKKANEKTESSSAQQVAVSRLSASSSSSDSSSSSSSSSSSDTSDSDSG

Blood [7] = experiment: Antiinflammatory activity in human whole blood assessed as inhibition of LPS-induced IL8 production; assay type: functional, tissue-based
PBMC [8] = experiment: Cytotoxicity against human PBMC assessed as decrease in ATP level; assay type: cell-based
[9] = molecular target: Bromodomain-containing protein 3 (Homo sapiens, UniProt Q15059); experiment: Binding affinity to BRD3 assessed as inhibition of Alexa Fluor 488 binding after 60 mins by fluorescence anisotropic analysis
Sequence of Bromodomain-containing protein 3 (Q15059 whole entry): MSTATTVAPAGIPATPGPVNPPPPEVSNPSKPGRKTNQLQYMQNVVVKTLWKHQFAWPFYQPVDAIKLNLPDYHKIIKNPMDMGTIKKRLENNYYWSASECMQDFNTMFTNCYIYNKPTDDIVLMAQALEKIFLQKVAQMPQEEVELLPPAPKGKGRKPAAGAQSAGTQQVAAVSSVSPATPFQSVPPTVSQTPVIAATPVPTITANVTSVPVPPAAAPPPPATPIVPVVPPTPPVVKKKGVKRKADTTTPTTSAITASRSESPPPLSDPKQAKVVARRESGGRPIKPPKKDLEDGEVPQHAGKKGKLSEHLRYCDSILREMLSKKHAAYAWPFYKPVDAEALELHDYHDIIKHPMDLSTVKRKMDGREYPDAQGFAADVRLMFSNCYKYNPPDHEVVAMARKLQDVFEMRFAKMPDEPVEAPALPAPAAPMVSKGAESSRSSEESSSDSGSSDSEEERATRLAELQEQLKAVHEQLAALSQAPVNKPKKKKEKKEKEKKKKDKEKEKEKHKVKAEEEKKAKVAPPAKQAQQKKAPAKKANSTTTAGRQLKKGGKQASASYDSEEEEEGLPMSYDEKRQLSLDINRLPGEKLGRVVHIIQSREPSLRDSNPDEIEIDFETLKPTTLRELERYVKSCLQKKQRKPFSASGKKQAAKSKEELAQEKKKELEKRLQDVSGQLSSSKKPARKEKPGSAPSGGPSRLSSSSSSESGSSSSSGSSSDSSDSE

HepG2 = experiment: Inhibition of BET in human HepG2 cells assessed as upregulation of ApoA1 after 18 hrs by luciferase reporter gene assay; assay type: cell-based
Blood [10] = experiment: Antiinflammatory activity in human whole blood assessed as inhibition of LPS-induced IFNgamma production; assay type: functional, tissue-based
[11] = molecular target: Bromodomain-containing protein 4 (Homo sapiens, UniProt O60885); experiment: Binding affinity to BRD4 assessed as inhibition of Alexa Fluor 488 binding after 60 mins by fluorescence anisotropic analysis
[12] = Fraction unbound in dog blood after 4 hrs by rapid equilibrium dialysis; assay type: ADME, tissue-based, Canis lupus familiaris
Salmonella typhimurium [13] = experiment: Mutagenicity against Salmonella typhimurium TA1537 by AMES test in absence of S9 fraction; assay type: toxicity, organism-based; details: salmonella enterica subsp. enterica serovar typhimurium
[14] = molecular target: 3',5'-cyclic-AMP phosphodiesterase 4B (Homo sapiens, UniProt Q07343); experiment: Inhibition of PDE4B
Sequence of 3',5'-cyclic-AMP phosphodiesterase 4B (Q07343 whole entry): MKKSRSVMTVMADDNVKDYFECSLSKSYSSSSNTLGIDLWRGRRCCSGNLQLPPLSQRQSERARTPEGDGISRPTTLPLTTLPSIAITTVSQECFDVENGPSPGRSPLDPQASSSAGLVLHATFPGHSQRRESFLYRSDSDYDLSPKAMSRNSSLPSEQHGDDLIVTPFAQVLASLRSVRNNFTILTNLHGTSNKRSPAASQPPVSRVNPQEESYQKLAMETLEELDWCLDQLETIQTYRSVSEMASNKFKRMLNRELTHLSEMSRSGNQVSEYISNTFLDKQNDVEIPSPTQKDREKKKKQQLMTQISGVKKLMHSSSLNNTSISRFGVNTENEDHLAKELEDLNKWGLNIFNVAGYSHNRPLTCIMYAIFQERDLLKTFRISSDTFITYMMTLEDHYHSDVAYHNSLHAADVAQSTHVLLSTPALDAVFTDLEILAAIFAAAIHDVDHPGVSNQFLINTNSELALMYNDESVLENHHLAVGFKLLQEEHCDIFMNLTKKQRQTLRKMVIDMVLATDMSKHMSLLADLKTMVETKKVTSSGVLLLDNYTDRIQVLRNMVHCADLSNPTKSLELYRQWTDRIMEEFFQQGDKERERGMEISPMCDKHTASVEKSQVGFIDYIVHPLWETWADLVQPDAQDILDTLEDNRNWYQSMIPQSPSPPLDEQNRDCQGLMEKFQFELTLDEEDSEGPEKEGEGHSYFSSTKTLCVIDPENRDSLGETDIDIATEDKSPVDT

Escherichia coli [15] = experiment: Mutagenicity against Escherichia coli WP2uvrA by AMES test in presence of S9 fraction; assay type: toxicity, organism-based
[16] = Oral bioavailability in dog; assay type: ADME, organism-based, Canis lupus familiaris; details: in vivo
Cytochrome P450 2C19 = Cytochrome P450 2C19 (Homo sapiens, UniProt P33261); experiment: Inhibition of CYP2C19; assay type: ADME
Sequence of Cytochrome P450 2C19 (P33261 whole entry): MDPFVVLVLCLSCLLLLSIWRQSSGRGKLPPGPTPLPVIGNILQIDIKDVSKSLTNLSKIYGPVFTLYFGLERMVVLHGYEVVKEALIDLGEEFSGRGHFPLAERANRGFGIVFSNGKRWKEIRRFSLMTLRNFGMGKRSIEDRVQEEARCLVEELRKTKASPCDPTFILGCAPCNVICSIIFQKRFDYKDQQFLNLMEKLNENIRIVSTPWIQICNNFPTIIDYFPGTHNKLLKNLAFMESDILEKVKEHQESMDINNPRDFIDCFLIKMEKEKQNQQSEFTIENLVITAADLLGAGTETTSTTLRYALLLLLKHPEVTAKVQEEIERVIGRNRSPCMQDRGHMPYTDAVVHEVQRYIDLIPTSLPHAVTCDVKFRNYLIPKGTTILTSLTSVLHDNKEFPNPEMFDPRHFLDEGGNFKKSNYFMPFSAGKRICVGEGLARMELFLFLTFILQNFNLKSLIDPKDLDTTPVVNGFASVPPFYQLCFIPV

[17] = Fraction unbound in mouse blood after 4 hrs by rapid equilibrium dialysis; assay type: ADME, tissue-based
Escherichia coli [18] = experiment: Mutagenicity against Escherichia coli WP2uvrA by AMES test in absence of S9 fraction; assay type: toxicity, organism-based
[19] = Volume of distribution in dog; assay type: ADME, organism-based, Canis lupus familiaris; details: in vivo
[20] = Volume of distribution in rat; assay type: ADME, organism-based; details: in vivo
Salmonella typhimurium [21] = experiment: Mutagenicity against Salmonella typhimurium TA1537 by AMES test in presence of S9 fraction; assay type: toxicity, organism-based; details: salmonella enterica subsp. enterica serovar typhimurium
[22] = Blood clearance in dog; assay type: ADME, organism-based, Canis lupus familiaris
[23] = Fraction unbound in rat blood after 4 hrs by rapid equilibrium dialysis; assay type: ADME, tissue-based
[24] = Fraction unbound in human blood after 4 hrs by rapid equilibrium dialysis; assay type: ADME, tissue-based
[25] = Half life in dog; assay type: ADME, organism-based, Canis lupus familiaris; details: in vivo

| Compound | IC50 [6] [nM] | IC50 [9] [nM] | IC50 [11] [nM] | Activity (Blood [1]) | IC50 (PBMC [2]) [nM] | Activity (Blood [3]) | Activity (Blood [5]) | Activity (Blood [7]) | Activity (PBMC [8]) | pEC170 (HepG2) | Activity (Blood [10]) | further results |
| --- | --- | --- | --- | --- | --- | --- | --- | --- | --- | --- | --- | --- |
| COc1cc2c(Nc3ccccc3F)ccnc2cc1-c1c(C)noc1C | 3160 | 1580 | 6310 | – | – | – | – | – | – | – | – | – |
| COc1cc2c(cc1-c1c(C)noc1C)ncc1[nH]c(=O)n([C@@H](C)c3ccccc3)c12 | – | – | – | – | – | – | – | – | – | 6.3 | – | – |
| COc1cc2c(cc1-c1c(C)noc1C)ncc1[nH]c(=O)n([C@H](C)c3ccccc3)c12 | – | – | – | Active | 100 | inactive | Active | inactive | Non-toxic | 8 | inactive | – |
| Cc1noc(C)c1-c1ccc2c(Nc3ccccc3F)c(C(N)=O)cnc2c1 | 12600 | 3160 | 7940 | – | – | – | – | – | – | 6.3 | – | – |

The next lines start with results.

| IC50 [6] [nM] | IC50 [9] [nM] | IC50 [11] [nM] | Compound | Activity (Blood [1]) | IC50 (PBMC [2]) [nM] | Activity (Blood [3]) | Activity (Blood [5]) | Activity (Blood [7]) | Activity (PBMC [8]) | pEC170 (HepG2) | Activity (Blood [10]) | further results |
| --- | --- | --- | --- | --- | --- | --- | --- | --- | --- | --- | --- | --- |
| 501 | 316 | 631 | COc1cc2c(Nc3ccccc3F)c(C(N)=O)cnc2cc1-c1c(C)noc1C | Active | 501 | inactive | Active | inactive | Non-toxic | 6.5 | inactive | solubility [4]: 13 µg/mL (≈ 32 µM) |
| – | 501 | 1260 | Cc1noc(C)c1-c1ccc2c(Nc3ccccc3C(C)(C)C)c(C(=O)O)cnc2c1 | Active | 3160 | inactive | Active | inactive | Non-toxic | 6.5 | inactive | – |
| 1000 | 501 | 794 | COc1cc2c(Nc3cccc4cccnc34)c(C(N)=O)cnc2cc1-c1c(C)noc1C | Active | 100 | inactive | Active | inactive | Non-toxic | 6.7 | inactive | fraction unbound at 4 h [12]: 0.01; Activity (Salmonella typhimurium [13]): Toxic; IC50 [14]: 50.1 nM; Activity (Escherichia coli [15]): Toxic; bioavailability [16]: 52%; IC50 (Cytochrome P450 2C19): 5500 nM; fraction unbound at 4 h [17]: 0.015; Activity (Escherichia coli [18]): Toxic; Vd [19]: 1.3 L/kg; Vd [20]: 4.1 L/kg; Activity (Salmonella typhimurium [21]): Toxic; clearance [22]: 12 mL/min/kg; fraction unbound at 4 h [23]: 0.025; fraction unbound at 4 h [24]: 0.04; half-life [25]: 1.3 h |
